The record followed here is PubChem BioAssay AID1895 (NMMLSC, 2009).

SMILES strings stand for the structures. Calls of active or inactive are those of the source. The rule behind the calls is not given here.

One assay concerns the target MEK5 PB1 domain binding to MEKK2 (MAP3K2) mutant PB1, human. Briefly: inhibitors of MEK5 binding to mutant MEKK2, dose response, biochemical, bead multiplex flow cytometry (AID 1895). The following applies: Bead-based multiplex flow cytometry. Background: A flow cytometer gives signals particle by particle.
By EC50 is commonly meant the concentration giving half of the maximal effect. Turning to `FC(F)(F)c1cccc(NC(=S)N(CCCN2CCCC2)Cc2cccn2Cc2ccc(Cl)cc2)c1`, the EC50 was 7.06 µM. `COC(=O)C1=C(C)N(Cc2ccccc2)C(=NCc2cccc(C(F)(F)F)c2)N[C@H]1c1cccc(F)c1`: the EC50 was 13.8 µM. Same read-out and setting: for `Cc1ccc(-c2csc(NC(=O)C[n+]3cc(-c4ccc(C)cc4)n4c3CCC4)n2)cc1` the value was > 30 µM (inactive); for `C#CCOCCOCCOCCNc1nc(N2CCN(C(=O)[C@H]([C@@H](C)CC)n3cc([C@@H](N)CO)nn3)CC2)nc(N2CCN(C(=O)[C@H](Cc3cc4ccccc4[nH]3)n3cc([C@@H](N)Cc4ccc(O)cc4)nn3)CC2)n1`, “inactive”. Turning to `CCN(CC)CCOC(=O)c1ccc(N/C=C(/C#N)c2nc(-c3ccc4c(c3)OCO4)cs2)cc1`, the EC50 was > 30 µM (inactive).

Take `c1ccc(CNc2nc(NCc3ccccc3)c3ccccc3n2)cc1`: the EC50 is > 30 µM (inactive). As to `CC(=O)Nc1ccc(OCC(O)Cn2c3ccccc3c3ccccc32)cc1` (stereo unspecified), the EC50 was > 30 µM (inactive). On the same count and under the same terms, for `COc1ccc2nc3cc(Cl)ccc3c(Nc3cc(C(C)C)c(O)cc3C)c2c1` the value was 5.37 µM. `COc1ccc(/C=N/Nc2cc(C)nc3ccc(Br)cc23)cc1`: the EC50 was 8.32 µM.

On to `Cc1cc2ccccc2n1CCNC(=O)c1ccccc1`, for which the EC50 was > 30 µM (inactive).

Regarding `CCN1CCN(CCNC(=O)c2ccc(/C=C3/Sc4ccccc4N(Cc4cccc(Cl)c4)C3=O)cc2)CC1`, the concentration giving a half-maximal response (EC50) is 6.53 µM. The same measure, in the same setting: the result for `CN(C)CCCn1c(SCC(=O)Nc2nc(-c3cccc(Br)c3)cs2)nc2ccccc2c1=O` reads > 30 µM (inactive). As for `CCOC(=O)c1c(CSC(=N)N)n(-c2ccc(C)cc2)c2cc(Br)c(OC(C)=O)cc12`, the 50% effective concentration (EC50) is 10.3 µM. For `CCC(/C=C1\Sc2ccc(OC)cc2N1CC)=C\c1sc2ccc(OC)cc2[n+]1CCCS(=O)(=O)[O-]`, the EC50 is > 30 µM (inactive). `CCOC(=O)C(C(=O)OCC)c1cc(Br)c2noc3c2c1C(=O)c1ccccc1-3`: the EC50 entry was “inactive”.

Regarding `CN(C)CCNc1ncnc2c1sc1nc(-c3ccccc3)c3c(c12)CCCC3`, the EC50 was 4.06 µM.

For `CN1CCN(CC(O)COc2ccc(C34CC5CC(CC(C5)C3)C4)cc2)CC1` (stereo unspecified), the EC50 was > 30 µM (inactive). `CCCCCCCCCCCCCCCC[n+]1cccc2ccccc21`: the EC50 was 6.89 µM. As for `CCN1/C(=C/c2ccc3cc(C)ccc3[n+]2C)Sc2ccc3sccc3c21`, the EC50 was > 30 µM (inactive).

Consider `C#CCOCCOCCOCCNc1nc(N2CCN(C(=O)[C@H](CCC(=O)O)n3cc(C(N)CO)nn3)CC2)nc(N2CCN(C(=O)[C@H](Cc3cc4ccccc4[nH]3)n3cc(C(N)[C@H](C)CC)nn3)CC2)n1` (stereo partly specified), for which the EC50 was > 30 µM (inactive). Take `CCCCCCOc1ccc(/C(C)=N/NC2=NCCN2)cc1[N+](=O)[O-]`: the EC50 is 14.4 µM.

As for `CCN1/C(=C\c2ccc3cc(C)ccc3[n+]2CC)Sc2cc(C)c(C)cc21`, the EC50 is > 30 µM (inactive). Consider `CCCOc1ccc2c(c1)C(=NN=C(N)N)c1cc(OCCC)ccc1-2`, for which the EC50 was 9.98 µM. On the same count and under the same terms, for `COc1ccc(Cn2cc3c(-c4ccc(F)cc4)nnc-3c3cc(OC)c(OC)cc32)cc1` the value was > 30 µM (inactive).

With `C#CCOCCOCCOCCNc1nc(N2CCN(C(=O)[C@H]([C@@H](C)CC)n3cc([C@@H](N)Cc4ccc(O)cc4)nn3)CC2)nc(N2CCN(C(=O)[C@H](Cc3cc4ccccc4[nH]3)n3cc([C@@H](N)C(C)CC)nn3)CC2)n1` (stereo partly specified), the concentration giving a half-maximal response (EC50) is 10.1 µM. For `COc1ccc2nc(C)cc(N/N=C/c3cccc(OC)c3O)c2c1`, the EC50 is > 30 µM (inactive). For `Cc1nc(Nc2cnc(/C=C/c3cc(C(=O)Nc4cccc(C(F)(F)F)c4)ccc3C)cn2)cc(N2CCNCC2)n1`, the EC50 was > 30 µM (inactive). As to `S=c1[nH]nc(-c2ccc(Cl)cc2)n1-c1ccc2c(c1)OCCO2`, the EC50 was > 30 µM (inactive). For the compound `CCCCCCCCCCOC(=O)Cn1c(COc2ccc(C)cc2)[n+](C)c2ccccc21`, the EC50 was 4.57 µM. Turning to `CCN(CC)CCOC(=O)c1ccc(N/C=C(/C#N)c2nc(-c3cccc(OC)c3)cs2)cc1`, the EC50 is > 30 µM (inactive). Consider `Cc1ccc(-c2c[n+](CC(=O)Nc3nc(-c4ccc(F)cc4)cs3)c3n2CCC3)cc1`, for which the EC50 is > 30 µM (inactive). For `C#CCOCCOCCOCCNc1nc(N2CCN(C(=O)[C@H]([C@@H](C)CC)n3cc([C@@H](N)Cc4ccc(O)cc4)nn3)CC2)nc(N2CCN(C(=O)[C@H](CCCCN)n3cc([C@@H](N)CC(C)C)nn3)CC2)n1`, the EC50 was 14.7 µM. Still for that read-out and setting: the result for `CCCCCCCCCCOC(=O)Cn1c(COc2ccccc2)[n+](C)c2ccccc21` reads 6 µM; that for `CCN(CC)CCOC(=O)c1ccc(NC(=O)c2cn(-c3ccccc3)nc2-c2cccs2)cc1`, > 30 µM (inactive).

For `COC(=O)c1c(C)oc(C)c1S(=O)(=O)N(Cc1ccccc1)C(C)C`, the EC50 was > 30 µM (inactive). Same read-out and setting: for `COc1ccc(N2CC(C(=O)Nc3nnc(SCc4ccccn4)s3)CC2=O)cc1` (stereo unspecified) the value was > 30 µM (inactive); for `CCNc1ccc2noc3c2c1C(=O)c1ccccc1-3`, 4.43 µM; for `CCCCCc1cc(=O)oc2c(C(CCN3CCCC(C)C3)c3ccc4c(c3)OCO4)c(OC)cc(OC)c12` (stereo unspecified), > 30 µM (inactive). For `Cc1cc2ccccc2n1CCNC(=O)c1ccc(Br)o1`, the EC50 entry was “inactive”. The same measure, in the same setting: for `NC(N)=N/N=C/c1ccc(OCc2ccc(Cl)cc2Cl)cc1` the value was 2.66 µM. For `Nc1cc2nc[nH]c2cc1N`, the EC50 entry is “inactive”. For `CS(=O)(=O)N1N=C(c2ccccc2)CC1c1ccc2c(c1)OCO2` (stereo unspecified), the EC50 entry is “inactive”. On the same count and under the same terms, the result for `C/C(=N\NC(=O)c1cc(O)cc(O)c1)c1ccc(NC(=O)Cc2ccccc2)cc1` reads > 30 µM (inactive); that for `C#CCOCCOCCOCCNc1nc(N2CCN(C(=O)[C@H](Cc3cc4ccccc4[nH]3)n3cc([C@@H](N)C(C)CC)nn3)CC2)nc(N2CCN(C(=O)[C@H](CCCCN)n3cc([C@@H](N)CC(C)C)nn3)CC2)n1` (stereo partly specified), 10.3 µM; that for `CCCCn1c(O)c(/C=C/C=C/C=Nc2ccccc2)sc1=S`, “inactive”.

Regarding `COc1cc(CNCCc2c[nH]c3ccccc23)ccc1OCc1ccccc1F`, the EC50 was > 30 µM (inactive). For the compound `O=C(Nc1ccc(C2=NCCN2)cc1)c1ccc(C(=O)Nc2ccc(C3=NCCN3)cc2)c([N+](=O)[O-])c1`, the EC50 is > 30 µM (inactive).

As for `CCCCCc1cc(=O)oc2c(C(CCN3CCCC(C)C3)c3ccc(OC)cc3)c(OC)cc(OC)c12` (stereo unspecified), the EC50 is 12 µM. On the same count and under the same terms, the result for `COc1ccc2nc(C)cc(N/N=C/c3ccc(F)cc3)c2c1` reads > 30 µM (inactive). `CCCCCCCCCCOC(=O)Cn1c(COc2ccccc2OC)[n+](C)c2ccccc21`: the EC50 was > 30 µM (inactive). On the same count and under the same terms, for `CNC(=O)C(=O)Nc1c(C)cc(C)cc1C` the value was > 30 µM (inactive); for `CCCCCCCCCCOC(=O)Cn1c(COc2cccc(OC)c2)[n+](C)c2ccccc21`, 21.5 µM. For `Cc1sc(NC(=O)c2ccccc2)c(C(c2ccccn2)N2CCN(CCO)CC2)c1C` (stereo unspecified), the EC50 is > 30 µM (inactive). Regarding `CSc1cccc(NC(=S)N(CCCN2CCCC2)Cc2cccn2Cc2ccc(Cl)cc2)c1`, the EC50 is 7.1 µM. With `CNC[C@H](CC1CCCCC1)NC[C@H](Cc1ccccc1)NCCC12CC3CC(CC(C3)C1)C2`, the EC50 is > 30 µM (inactive). Turning to `CN(C)c1ccc(NC(=O)CN2CCC(O)(c3ccccc3)CC2)cc1`, the EC50 is > 30 µM (inactive). As for `CCN1CCN(Cc2ccc(NC(=O)c3cc(NC(=O)c4cnn(-c5ccccc5)c4N)cc(OC)c3)cc2C(F)(F)F)CC1`, the EC50 is > 30 µM (inactive).

For `COc1cc(/C=N/NC(=O)c2cc3ccccc3cc2O)ccc1OCCN1CCCCC1`, the EC50 was > 30 µM (inactive). As to `OCCCCNCc1ccc(OCc2ccc(Cl)cc2Cl)cc1`, the EC50 was > 30 µM (inactive). On to `CCCCCc1cc(=O)oc2c(C(CCN3CCCCC3)c3ccc(OC)cc3)c(OC)cc(OC)c12` (stereo unspecified), for which the EC50 is > 30 µM (inactive). As for `C#CCOCCOCCOCCNc1nc(N2CCN(C(=O)[C@H](Cc3ccc(O)cc3)n3cc([C@@H](N)C(C)CC)nn3)CC2)nc(N2CCN(C(=O)[C@H](Cc3cc4ccccc4[nH]3)n3cc([C@@H](N)CC(C)C)nn3)CC2)n1` (stereo partly specified), the EC50 was 24.9 µM. Same read-out and setting: for `C#CCOCCOCCOCCNc1nc(N2CCN(C(=O)C(Cc3ccc(O)cc3)n3cc(C(N)CC(C)C)nn3)CC2)nc(N2CCN(C(=O)C(Cc3cc4ccccc4[nH]3)n3cc(C(N)C(C)CC)nn3)CC2)n1` (stereo unspecified) the value was > 30 µM (inactive); for `COc1ccccc1N(CN1C(=O)c2ccccc2C1=O)C(=O)c1cccc(C)c1`, > 30 µM (inactive). With `CCOc1cccc2sc(N(CCCN(C)C)C(=O)c3ccc(S(=O)(=O)N4CCc5ccccc5C4)cc3)nc12`, the concentration for a half-maximal effect (EC50) is 12.1 µM. Still for that read-out and setting: for `COc1ccc(-c2csc(N(CCCN(C)C)C(=O)c3ccccc3Cl)n2)cc1` the value was > 30 µM (inactive).

`C#CCOCCOCCOCCNc1nc(N2CCN(C(=O)[C@H]([C@@H](C)CC)n3cc([C@@H](N)CO)nn3)CC2)nc(N2CCN(C(=O)[C@H](Cc3cc4ccccc4[nH]3)n3cc([C@@H](N)C(C)CC)nn3)CC2)n1` (stereo partly specified): the EC50 was > 30 µM (inactive).

`C#CCOCCOCCOCCNc1nc(N2CCN(C(=O)[C@H](Cc3ccc(O)cc3)n3cc([C@@H](N)CC(C)C)nn3)CC2)nc(N2CCN(C(=O)[C@H](Cc3ccc(O)cc3)n3cc([C@@H](N)CC(C)C)nn3)CC2)n1`: the EC50 is 25.1 µM. On the same count and under the same terms, the result for `COc1cccc(OC)c1-c1nn2c(-c3cc(-c4ccccc4)n[nH]3)nnc2s1` reads > 30 µM (inactive); that for `COc1cc2nc(N3CCN(c4cc(C)ccc4C)CC3)nc(N)c2cc1OC`, 5.31 µM. Consider `CCN(CC)CCNC(=O)c1ccc(NC(=O)c2cn(-c3ccccc3)nc2-c2cccs2)cc1`, for which the EC50 was 5.01 µM. `CCN(Cc1ccccc1)S(=O)(=O)c1ccc(C(=O)N(CCCN(C)C)c2nc3ccc(F)cc3s2)cc1`: the EC50 was 7.18 µM.

Still in this assay, the particulars now being: Bead-based multiplex flow cytometry, measured here: Ki for PB1 binding.
As a reminder, the Ki is a measure of affinity in units of concentration, obtained from inhibition or displacement. Lower therefore signals higher affinity. In turn, `CCOC(=O)C(C(=O)OCC)c1cc(Br)c2noc3c2c1C(=O)c1ccccc1-3` displayed a Ki of 2.9 µM. Same read-out and setting: the result for `CCNc1ccc2noc3c2c1C(=O)c1ccccc1-3` reads 4.34 µM.

As to `Cc1cc2ccccc2n1CCNC(=O)c1ccc(Br)o1`, the Ki turned out to be 2.87 µM. This Ki lies about 1.5-fold lower than the previous one. On to `Nc1cc2nc[nH]c2cc1N`, for which the Ki is 5.77 µM. The compound `CS(=O)(=O)N1N=C(c2ccccc2)CC1c1ccc2c(c1)OCO2` (stereo unspecified) gave a Ki of 0.95 µM.
